# Test: Cytotoxicity Determination
# Assay type: cell-based
# Settings: human, HEp-2 cells, without addition of virus, CCK-8 readout, bins (Table 4: greater than 100 μM; Table 5: equal to or less than 100 μM and greater than 10 μM), read-out: 50% cytotoxicity concentration (CC50)
# Protocol: In order to determine the compound cytotoxicity, in parallel, each of the compounds is applied to duplicate wells in a 384-well cell plate at serial final concentrations starting from 100 μM using ½ stepwise dilutions for 7 points without addition of virus. Incubate the cells at 37° C., 5% CO2 for 5 days. Add 6 μl CCK-8 into each well and incubate in a CO2 incubator at 37° C. for 3-4 hours. Read the plates to obtain the optical densities which are used to calculate 50% cytotoxicity concentration (CC50).
row,SMILES,CC50 at 5 days [µM]
1,COc1ccc(C(=O)NCC(=O)N/N=C(\C)c2csc(-c3ccccc3)c2)cc1OC [Compound 429],> 100
2,COc1ccc(C(=O)NCC(=O)c2nc(-c3csc4c(F)cccc34)co2)cc1OC [Compound 3201],10 to 100
3,COc1ccc(C(=O)NCC(=O)c2cncc(-c3csc4c(F)cccc34)n2)cc1OC [Compound 1219],> 100
4,COc1cc(C(=O)NCC(=O)c2cccc(-c3csc4c(F)cccc34)n2)ccc1OC1CCN(C)CC1 [Compound 1234],10 to 100
5,COc1ccc(C(=O)NCC(=O)c2cnc(-c3csc4c(F)cccc34)n2C)cc1OC [Compound 2205],> 100
6,COc1ccc(C(=O)CCC(=O)c2cccc(-c3csc4c(F)cccc34)n2)cc1OC [Compound 1339],10 to 100
7,COc1ccc(C(=O)NCC(=O)N/N=C/c2csc(-c3ccccc3)c2)cc1OC [Compound 487],10 to 100
8,COc1ccc(C(=O)NCC(=O)Nc2ccc3c(-c4ccccc4)c[nH]c3c2)cc1OC [Compound 4104],> 100
9,COc1ccc(C(=O)NCC(=O)N/N=C(\C)c2c(C)[nH]c3ccccc23)cc1OC [Compound 416],10 to 100
10,COc1ccc(C(=O)NCC(=O)c2cc(=O)cc(-c3csc4c(F)cccc34)[nH]2)cc1OC [Compound 1222],> 100
11,COc1ccc(C(=O)NCC(=O)Nc2nccc3ccccc23)cc1OC [Compound 906],> 100
12,COc1ccc(C(=O)NCC(=O)N/N=C(\C)c2csc3c2CCCC3)cc1OC [Compound 428],> 100
13,Cc1ccc(/C=N/NC(=O)CNC(=O)c2ccccc2)o1 [Compound 119],10 to 100
14,COc1ccc(S(=O)(=O)NCC(=O)N/N=C(\C)c2csc3ccccc23)cc1OC [Compound 240],10 to 100
15,COc1cc(C(=O)NCC(=O)c2cccc(-c3csc4c(F)cccc34)n2)ccc1OCCN1CCOCC1 [Compound 1233],10 to 100
16,COc1ccc(C(=O)NCc2nnc(-c3csc4ccccc34)o2)cc1OC [Compound 4103],> 100
17,COc1ccc(C(=O)NCC(=O)N/N=C(\C)c2cnc3ccccc3c2)cc1OC [Compound 435],> 100
18,CCn1cc(-c2csc3c(F)cccc23)nc1C(=O)CNC(=O)c1ccc(OC)c(OC)c1 [Compound 1354],10 to 100
19,COc1cc(C(=O)CNC(=O)c2ccc(OC)c(OC)c2)nc(-c2csc3c(F)cccc23)n1 [Compound 1201],> 100
20,COc1ccc(C(=O)NCC(=O)N/N=C(\C)c2c(Br)sc3ccccc23)cc1OC [Compound 437],10 to 100

row,SMILES,CC50 at 5 days [µM]
1,COc1ccc(C(=O)NCC(=O)N/C=C/c2csc3ccccc23)cc1OC [Compound 4102],10 to 100
2,COc1ccc(C(=O)NCCc2nccc(-c3csc4c(F)cccc34)n2)cc1OC [Compound 1208],> 100
3,COc1ccc(C(=O)Nc2cn(C)c3ccc(-c4csc5c(F)cccc45)nc3c2=O)cc1OC [Compound 2901],> 100
4,CCOc1ccc(C(=O)NCCNC(=O)N(CCOC)c2csc3c(F)cccc23)cc1OC [Compound 1000],> 100
5,COc1ccc(C(=O)N(C)CC(=O)N/N=C(\C)c2csc3ccccc23)cc1OC [Compound 242],> 100
6,COc1ccc(C(=O)NCC(=O)N/N=C/c2cncc3ccccc23)cc1OC [Compound 412],10 to 100
7,COc1ccc(C(=O)NC(C)C(=O)c2nc(-c3csc4c(F)cccc34)ccc2O)cc1OC (stereo not shown) [Compound 1304],10 to 100
8,COc1ccc(C(=O)NCCc2ccnc(-c3csc4c(F)cccc34)n2)cc1OC [Compound 1207],> 100
9,CCOc1ccc(C(=O)NCC(=O)NCC(=O)c2csc3c(F)cccc23)cc1OC [Compound 910],10 to 100
10,COc1ccc(C(=O)NCC(=O)c2nc(-c3csc4c(F)cccc34)n[nH]2)cc1OC [Compound 860],10 to 100
11,COc1cc(C(=O)NCC(=O)c2cccc(-c3csc4c(F)cccc34)n2)ccc1OC1CCNCC1 [Compound 1231],10 to 100
12,CCOc1ccc(C(=O)NCC(=O)Nc2cc3ccccc3n2C)cc1OC [Compound 909],> 100
13,COc1ccc(C(=O)NCC(=O)NN=C2Cc3ccccc3C2)cc1OC [Compound 420],> 100
14,COc1ccc2c(c1)/C(=N/NC(=O)CNC(=O)c1ccc(OC)c(OC)c1)CC2 [Compound 424],> 100
15,CCOc1ccc(C(=O)NCC(=O)NNC(=O)c2csc3cccnc23)cc1OC [Compound 902],10 to 100
16,CCOc1ccc(C(=O)NCC(=O)Nc2nc3cc(C)ccc3n2CCOC)cc1OC [Compound 916],> 100
17,COc1ccc(C(=O)NCC(=O)N/N=C/c2csc3ccccc23)cc1 [Compound 101],> 100
18,COc1ccc(C(=O)NCC(=O)N/N=C(\C)c2nc3ccccc3s2)cc1OC [Compound 417],10 to 100
19,CCOc1ccc(C(=O)NCC(=O)NCCc2csc3c(F)cccc23)cc1OC [Compound 908],> 100
20,COc1ccc(C(=O)NCC(=O)N/N=C(\C)c2cc(-c3ccccc3)sc2C)cc1OC [Compound 419],10 to 100

row,SMILES,CC50 at 5 days [µM]
1,COc1ccc(CC(=O)NCC(=O)N/N=C(/C)c2csc3ccccc23)cc1OC [Compound 472],10 to 100
2,CC(C)Oc1ccc(C(=O)NCC(=O)N/N=C/c2csc3ccccc23)cc1 [Compound 236],10 to 100
3,COc1ccc(C(=O)NCC(=O)c2ncc(-c3csc4c(F)cccc34)n2C)cc1OC [Compound 2204],10 to 100
4,COc1ccc(C(=O)NCC(=O)NN=C(c2cccs2)c2cccs2)cc1OC [Compound 431],> 100
5,COc1ccc(C(=O)NCCC(=O)N/N=C(/C)c2csc3ccccc23)cc1OC [Compound 243],> 100
6,COc1ccc(C(=O)NCC(=O)N/N=C(\C)c2csc3ccc(Br)cc23)cc1OC [Compound 432],10 to 100
7,COc1cc(C(=O)NCC(=O)c2ccc(OC)c(-c3ccc(F)c(Cl)c3)n2)ccc1OCCO [Compound 1603],> 100
8,COc1ccc(C(=O)NCC(=O)N/N=C(\C)c2cccc3ccccc23)cc1OC [Compound 433],10 to 100
9,COc1ccc(C(=O)NCC(=O)c2coc(-c3csc4c(F)cccc34)n2)cc1OC [Compound 3200],> 100
10,CCOc1ccc(C(=O)NCC(=O)Nc2nc3cc(C(=O)OC)ccc3n2CCOC)cc1OC [Compound 912],10 to 100
11,COc1cc(C(=O)NCC(=O)N/N=C(\C)c2csc3ccccc23)ccn1 [Compound 473],> 100
12,CN(C)c1ccc(C(=O)NCC(=O)N/N=C/c2csc3ccccc23)cc1 [Compound 237],10 to 100
13,COc1ccc(C(=O)NCC(=O)Nc2cc3ccccc3c(=O)[nH]2)cc1OC [Compound 907],> 100
14,COc1ccc(C(=O)NCC(=O)NNCCC(=O)c2csc3ccccc23)cc1OC [Compound 904],> 100
15,COc1ccc(C(=O)NCC(=O)N/N=C2\CCc3cc(OC)c(OC)cc32)cc1OC [Compound 421],> 100
16,COc1ccc(CNCC(=O)N/N=C/c2csc3ccccc23)cc1OC [Compound 241],10 to 100
17,CCOc1ccc(C(=O)NCC(=O)Nc2nc3ccc(F)c(F)c3n2CCOC)cc1OC [Compound 915],> 100
18,COc1ccc(C(=O)NCC(=O)N/N=C2\CCc3ccccc32)cc1OC [Compound 425],> 100

# Reference: patent US9724351B2, “Compounds for the treatment of paramoxyvirus viral infections” (priority 2012, dated 2017)
